19 compounds from patent US7872004B2, “6-(heterocyclyl-substituted benzyl)-4-oxoquinoline compound and use thereof as HIV integrase inhibitor” (Japan Tobacco Inc., priority 2006, dated 2011) can be followed below.

Where only a bound is given, the exact number is not on record here.

The experiment addresses T1, HIV integrase (Human immunodeficiency virus type 1 group M subtype B, UniProt P12497, F1332H).
T1 construct: HIV integrase full length gene; made in house; host or cells: Escherichia coli BL21(DE3)
As to the kind of experiment: Determination of enzyme (HIV integrase) inhibitory activity. The note with it: recombinant integrase protein (F185H), strand transfer plate assay, absorbance at 450 nm. It counts as biochemical, HIV (Human Immunodeficiency Virus (type 1)). The source says:
The following explains evaluation methods of the HIV integrase inhibitory activity of the compound of the present invention.
(i) Construction of Recombinant Integrase Gene Expression System
HIV integrase full length gene (J. Virol., 67, 425-437 (1993)) in which phenylalanine at codon 185 was substituted by histidine, was inserted between the restriction enzyme NdeI and XhoI sites of plasmid pET21a(+) (Novagen), whereby an integrase expression vector pET21a-IN-F185H was constructed.
(ii) Production and Purification of Integrase Protein
Escherichia coli recombinant BL21(DE3) transformed with plasmid pET21a-IN-F185H obtained in (i) was shake cultured at 30° C. in a liquid medium containing ampicillin. When the culture reached the logarithmic growth phase, isopropyl-β-D-thiogalactopyranoside was added to promote expression of integrase gene. The culture was continued for 3 hr to promote accumulation of the integrase protein. The recombinant E. coli was collected in pellets by centrifugal separation and preserved at −80° C.
The E. coli was suspended in Lysis buffer ([…] HEPES (pH 7.5), 5 mM DTT, 10 mM CHAPS, 10% glycerol) containing 1M sodium chloride and subjected to repeat pressurization and depressurization for rupture, and centrifugal separation at 4° C., 40,000×g, 60 min to recover a water-soluble fraction (supernatant). This was diluted 10-fold with Lysis buffer free of sodium chloride, mixed with SP-Sepharose (GE healthcare Bioscience) and stirred at 4° C. for 60 min to allow adsorption of integrase protein to the resin. The resin was washed with Lysis buffer containing 100 mM sodium chloride and the integrase protein was eluted with Lysis buffer containing 1M sodium chloride.
The eluted integrase protein solution was subjected to a Superdex 75 (GE healthcare Bioscience) column for gel filtration. The protein was eluted with Lysis buffer containing 1M sodium chloride.
The obtained fractions of the integrase protein were collected and preserved at −80° C.
(iii) Preparation of DNA Solution
The following DNA synthesized by Greiner or FASMAC was dissolved in TE buffer (10 mM Tris-hydrochloric acid (pH 8.0), 1 mM EDTA) and mixed with donor DNA, target DNA, and each complementary strand (+ and − strands) to 1 μM. The mixture was heated at 95° C. for 5 min, 80° C. for 10 min, 70° C. for 10 min, 60° C. for 10 min, 50° C. for 10 min and 40° C. for 10 min and kept at 25° C. to give a double stranded DNA, which was used for the test.
(iv) Determination of Enzyme (HIV Integrase) Inhibitory Activity
The donor DNA was diluted with TE buffer to 10 nM (or 5 nM), of which 50 μl was added to each well of streptavidin-coated microtiter plate (Roche) and allowed to adsorb at 37° C. for 60 min. The plate was washed with phosphate buffer (Dulbecco's PBS, Sanko Junyaku Co., Ltd.) containing 0.1% Tween 20 and phosphate buffer. Then, an enzyme reaction mixture (70 μl), a test substance (10 μl) diluted with the enzyme reaction mixture and 100 μg/ml (or 64 μg/ml (2 μM)) integrase protein (10 μl) were added to each well and reacted at 37° C. for 60 min.
Composition of the enzyme reaction mixture: 30 mM MOPS (3-morpholinopropanesulfonic acid), 5 mM magnesium chloride, 3 mM DTT (dithiothreitol), 0.1 mg/ml BSA (bovine serum albumin), 5% glycerol, 10% DMSO (dimethyl sulfoxide), 0.01% Tween 20.
Then, 50 nM (or 25 nM) target DNA (10 μl) was added, reacted at 37° C. for 10 min and washed with phosphate buffer containing 0.1% Tween 20 to stop the reaction.
Then, 100 mU/ml peroxidase labeled anti-digoxigenin antibody solution (Roche, 100 μl) was added, and the mixture was reacted at 37° C. for 60 min, followed by washing with phosphate buffer containing 0.1% Tween 20.
A peroxidase color solution (Bio Rad, 100 μl) was added and allowed to react at room temperature for 4 min (or 3 min). The color reaction was stopped by adding IN sulfuric acid (100 μl). The absorbance at 450 nm was measured. […]
As to `COc1cc2c(cc1Cc1cc(N3CCC(O)CC3)cc(Cl)c1F)c(=O)c(C(=O)O)cn2[C@H](CO)C(C)C` [Example 32, 6-[3-chloro-2-fluoro-5-(4-hydroxypiperidin-1-yl)benzyl]-1-((S)-1-hydroxymethyl-2-methylpropyl)-7-methoxy-4-oxo-1,4-dihydroquinoline-3-carboxylic acid], the IC50 (usually the point on the concentration scale where inhibition reaches its midpoint) was < 10 nM.

Turning to `COc1cc2c(cc1Cc1cc(N3CCCS3(=O)=O)cc(Cl)c1F)c(=O)c(C(=O)O)cn2[C@H](CO)C(C)C` [Example 21, 6-[3-chloro-5-(1,1-dioxoisothiazolidin-2-yl)-2-fluorobenzyl]-1-((S)-1-hydroxymethyl-2-methylpropyl)-7-methoxy-4-oxo-1,4-dihydroquinoline-3-carboxylic acid], the IC50 is < 10 nM.

For the compound `CCc1cc2c(cc1Cc1cc(N3CCOCC3)cc(Cl)c1F)c(=O)c(C(=O)O)cn2[C@H](CO)COC` [Example 20, 6-[3-chloro-2-fluoro-5-(morpholin-4-yl)benzyl]-7-ethyl-1-[(R)-2-hydroxy-1-(methoxymethyl)ethyl]-4-oxo-1,4-dihydroquinoline-3-carboxylic acid], the IC50 is < 10 nM.

On to `CCc1cc2c(cc1Cc1cc(N3CCCC3=O)cc(Cl)c1F)c(=O)c(C(=O)O)cn2[C@H](CO)C(C)(C)C` [Example 52, 6-[3-chloro-2-fluoro-5-(2-oxopyrrolidin-1-yl)benzyl]-7-ethyl-1-((S)-1-hydroxymethyl-2,2-dimethylpropyl)-4-oxo-1,4-dihydroquinoline-3-carboxylic acid], for which the IC50 is 10 to 100 nM.

Take `CCc1cc2c(cc1Cc1cc(N3CCOCC3)cc(Cl)c1F)c(=O)c(C(=O)O)cn2[C@H](CO)C(C)(C)C` [Example 18, 6-[3-chloro-2-fluoro-5-(morpholin-4-yl)benzyl]-7-ethyl-1-((S)-1-hydroxymethyl-2,2-dimethylpropyl)-4-oxo-1,4-dihydroquinoline-3-carboxylic acid]: the IC50 is < 10 nM.

Turning to `COc1cc2c(cc1Cc1cc(N3CCCCC3=O)cc(Cl)c1F)c(=O)c(C(=O)O)cn2[C@H](CO)C(C)C` [Example 7, 6-[3-chloro-2-fluoro-5-(2-oxopiperidin-1-yl)benzyl]-1-((S)-1-hydroxymethyl-2-methylpropyl)-7-methoxy-4-oxo-1,4-dihydroquinoline-3-carboxylic acid], the 50% inhibitory concentration (IC50) is < 10 nM.

As to `COc1cc2c(cc1Cc1cc(N3CCCC3=O)c(F)c(Cl)c1F)c(=O)c(C(=O)O)cn2[C@H](CO)C(C)C` [Example 25, 6-[3-chloro-2,4-difluoro-5-(2-oxopyrrolidin-1-yl)benzyl]-1-((S)-1-hydroxymethyl-2-methylpropyl)-7-methoxy-4-oxo-1,4-dihydroquinoline-3-carboxylic acid], the 50% inhibitory concentration (IC50) is < 10 nM.

As to `COCC[C@@H](CO)n1cc(C(=O)O)c(=O)c2cc(Cc3cc(N4CCCC4=O)cc(Cl)c3F)c(OC)cc21` [Example 47, 6-[3-chloro-2-fluoro-5-(2-oxopyrrolidin-1-yl)benzyl]-1-((S)-1-hydroxymethyl-3-methoxypropyl)-7-methoxy-4-oxo-1,4-dihydroquinoline-3-carboxylic acid], the half-maximal inhibitory concentration (IC50) was 10 to 100 nM.

`COc1cc2c(cc1Cc1cc(N3CCCC3)cc(Cl)c1F)c(=O)c(C(=O)O)cn2[C@H](CO)C(C)C` [Example 3, 6-[3-chloro-2-fluoro-5-(pyrrolidin-1-yl)benzyl]-1-((S)-1-hydroxymethyl-2-methylpropyl)-7-methoxy-4-oxo-1,4-dihydroquinoline-3-carboxylic acid]: the IC50 is < 10 nM.

Take `CC(C)(C)[C@H](CO)n1cc(C(=O)O)c(=O)c2cc(Cc3cc(N4CCOCC4)c(F)c(Cl)c3F)ccc21` [Example 59, 6-[3-chloro-2,4-difluoro-5-(morpholin-4-yl)benzyl]-1-((R)-1-hydroxymethyl-2,2-dimethylpropyl)-4-oxo-1,4-dihydroquinoline-3-carboxylic acid]: the IC50 was 10 to 100 nM.

As to `COc1cc2c(cc1Cc1cc(N3CCCC3=O)cc(Cl)c1F)c(=O)c(C(=O)O)cn2[C@H](CO)[C@@H](C)OC` [Example 48, 6-[3-chloro-2-fluoro-5-(2-oxopyrrolidin-1-yl)benzyl]-1-((1R,2R)-1-hydroxymethyl-2-methoxypropyl)-7-methoxy-4-oxo-1,4-dihydroquinoline-3-carboxylic acid], the IC50 was < 10 nM.

Take `COc1cc2c(cc1Cc1cc(N3CCOCC3)cc(Cl)c1F)c(=O)c(C(=O)O)cn2[C@H](CO)C(C)(C)OC` [Example 42, 6-[3-chloro-2-fluoro-5-(morpholin-4-yl)benzyl]-1-((R)-1-hydroxymethyl-2-methoxy-2-methylpropyl)-7-methoxy-4-oxo-1,4-dihydroquinoline-3-carboxylic acid]: the concentration for half-maximal inhibition (IC50) is < 10 nM.

Turning to `CCc1cc2c(cc1Cc1cc(N3CCCC3=O)c(F)c(Cl)c1F)c(=O)c(C(=O)O)cn2[C@H](CO)C(C)(C)C` [Example 55, 6-[3-chloro-2,4-difluoro-5-(2-oxopyrrolidin-1-yl)benzyl]-7-ethyl-1-((S)-1-hydroxymethyl-2,2-dimethylpropyl)-4-oxo-1,4-dihydroquinoline-3-carboxylic acid], the concentration for half-maximal inhibition (IC50) fell in the range of 10 to 100 nM.

Regarding `CC(C)(C)[C@@H](CO)n1cc(C(=O)O)c(=O)c2cc(Cc3cc(N4CCOCC4)c(F)c(Cl)c3F)ccc21` [Example 56, 6-[3-chloro-2,4-difluoro-5-(morpholin-4-yl)benzyl]-1-((S)-1-hydroxymethyl-2,2-dimethylpropyl)-4-oxo-1,4-dihydroquinoline-3-carboxylic acid], the IC50 was < 10 nM.

With `COc1cc2c(cc1Cc1cc(N3CCSCC3)cc(Cl)c1F)c(=O)c(C(=O)O)cn2[C@H](CO)C(C)C` [Example 27, 6-[3-chloro-2-fluoro-5-(thiomorpholin-4-yl)benzyl]-1-((S)-1-hydroxymethyl-2-methylpropyl)-7-methoxy-4-oxo-1,4-dihydroquinoline-3-carboxylic acid], the IC50 was < 10 nM.

As for `COc1cc2c(cc1Cc1cc(N3CCCCC3)cc(Cl)c1F)c(=O)c(C(=O)O)cn2[C@H](CO)C(C)C` [Example 6, 6-[3-chloro-2-fluoro-5-(piperidin-1-yl)benzyl]-1-((S)-1-hydroxymethyl-2-methylpropyl)-7-methoxy-4-oxo-1,4-dihydroquinoline-3-carboxylic acid], the concentration for half-maximal inhibition (IC50) was < 10 nM.

As to `COc1cc2c(cc1Cc1cc(N3CCOCC3)cc(Cl)c1F)c(=O)c(C(=O)O)cn2[C@H](CO)[C@H](C)OC` [Example 28, 6-[3-chloro-2-fluoro-5-(morpholin-4-yl)benzyl]-1-((1R,2S)-1-hydroxymethyl-2-methoxypropyl)-7-methoxy-4-oxo-1,4-dihydroquinoline-3-carboxylic acid], the half-maximal inhibitory concentration (IC50) was < 10 nM.

For `COc1cc2c(cc1Cc1cc(-c3nccs3)cc(Cl)c1F)c(=O)c(C(=O)O)cn2[C@H](CO)C(C)C` [Example 37, 6-[3-chloro-2-fluoro-5-(thiazol-2-yl)benzyl]-1-((S)-1-hydroxymethyl-2-methylpropyl)-7-methoxy-4-oxo-1,4-dihydroquinoline-3-carboxylic acid], the IC50 was in the range of 10 to 100 nM.

Regarding `COc1cc2c(cc1Cc1cc(N3CCOCC3)cc(Cl)c1F)c(=O)c(C(=O)O)cn2[C@H](CO)C(C)C` [Example 5, 6-[3-chloro-2-fluoro-5-(morpholin-4-yl)benzyl]-1-((S)-1-hydroxymethyl-2-methylpropyl)-7-methoxy-4-oxo-1,4-dihydroquinoline-3-carboxylic acid], the IC50 is < 10 nM.
